Reference: ChEMBL document CHEMBL5303573, “Mapping human microbiome drug metabolism by gut bacteria and their genes” (Nature, 2019)

Test system: not listed separately
Assay: The drug is tested on Providencia alcalifaciens strain: DSM30120 for biotransformation. The drug concentrations were measured before and after a 12-h incubation by liquid-chromatography-coupled mass spectrometry (LC–MS)
Conditions: 2 µM
In the case of CN(C)CCC=C1c2ccccc2C=Cc2ccccc21 [CYCLOBENZAPRINE], the “Bacterial Biotransformation” value is reported as “Compound NOT metabolized”.
For Clc1cccc(Cl)c1N=C1NCCN1 [CLONIDINE], the “Bacterial Biotransformation” value was “Compound NOT metabolized”.
In the case of CN/C(=N/CCSCc1nc[nH]c1C)NC#N [CIMETIDINE], the “Bacterial Biotransformation” value is reported as “Compound NOT metabolized”.
With COC(=O)[C@H](c1ccccc1Cl)N1CCc2sccc2C1.O=S(=O)(O)O [CLOPIDOGREL BISULFATE] the “Bacterial Biotransformation” value was “Compound NOT metabolized”.
For O=C(O)COCCN1CCN(C(c2ccccc2)c2ccc(Cl)cc2)CC1 (centres undefined) [CETIRIZINE], the “Bacterial Biotransformation” value was “Compound NOT metabolized”.
In the case of CC(C)NCC(O)COc1ccc(CCOCC2CC2)cc1 (centres undefined) [BETAXOLOL], the “Bacterial Biotransformation” value is reported as “Compound NOT metabolized”.
In the case of O=P1(N(CCCl)CCCl)NCCCO1 (centres undefined) [CYCLOPHOSPHAMIDE ANHYDROUS], the “Bacterial Biotransformation” value is reported as “Compound NOT metabolized”.
With CC(C)NCC(O)COc1ccc(CC(N)=O)cc1 (centres undefined) [ATENOLOL] the “Bacterial Biotransformation” value was “Compound NOT metabolized”.

Target: T1, Lipase (Bacteroides thetaiotaomicron, UniProt Q8A3J3)
T1 sequence (Q8A3J3 whole entry): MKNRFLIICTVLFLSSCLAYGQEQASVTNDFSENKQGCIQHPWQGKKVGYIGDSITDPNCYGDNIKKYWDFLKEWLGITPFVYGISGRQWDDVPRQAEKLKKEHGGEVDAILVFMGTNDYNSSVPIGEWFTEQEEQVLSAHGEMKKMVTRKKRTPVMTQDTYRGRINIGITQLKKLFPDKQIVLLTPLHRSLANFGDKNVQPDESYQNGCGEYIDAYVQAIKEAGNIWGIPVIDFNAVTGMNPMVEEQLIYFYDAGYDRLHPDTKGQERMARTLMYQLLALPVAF
Assay: The drug is tested on Bacteroides thetaiotaomicron strain: VPI-5482 for biotransformation. The drug concentrations were measured before and after a 12-h incubation by liquid-chromatography-coupled mass spectrometry (LC–MS)
Type: ADME
Design: dose 2 uM
Conditions: 2 µM
In the case of O=C(O)c1cc(/N=N/c2ccc(S(=O)(=O)Nc3ccccn3)cc2)ccc1O [SULFASALAZINE], the “Bacterial Biotransformation” value is reported as “Compound NOT metabolized”.
In the case of CC(=O)Oc1ccc(C(c2ccc(OC(C)=O)cc2)c2ccccn2)cc1 [BISACODYL], the “Bacterial Biotransformation” value is reported as “Compound metabolized”.
In the case of CC(=O)SCC(Cc1ccccc1)C(=O)NCC(=O)OCc1ccccc1 (centres undefined) [RACECADOTRIL], the “Bacterial Biotransformation” value is reported as “Compound metabolized”.
In the case of C#C[C@]1(O)CC[C@H]2[C@@H]3CCC4=Cc5oncc5C[C@]4(C)[C@H]3CC[C@@]21C [DANAZOL], the “Bacterial Biotransformation” value is reported as “Compound NOT metabolized”.
For C[C@@H]1CC[C@H]2[C@@H](C)C(=O)O[C@@H]3O[C@@]4(C)CC[C@@H]1[C@]32OO4 [ARTEMISININ], the “Bacterial Biotransformation” value was “Compound NOT metabolized”.
In the case of COc1ccnc(C[S+]([O-])c2nc3ccc(OC(F)F)cc3[nH]2)c1OC (centres undefined) [PANTOPRAZOLE], the “Bacterial Biotransformation” value is reported as “Compound NOT metabolized”.
With CC(=O)Nc1ccc(OC(C)=O)cc1 [DIACETAMATE] the “Bacterial Biotransformation” value was “Compound metabolized”.
In the case of Nc1ccc(/N=N/c2ccccc2)c(N)n1 [PHENAZOPYRIDINE], the “Bacterial Biotransformation” value is reported as “Compound NOT metabolized”.
For CCN(CC)C(=O)/C(C#N)=C/c1cc(O)c(O)c([N+](=O)[O-])c1 [ENTACAPONE], the “Bacterial Biotransformation” value was “Compound NOT metabolized”.
For CC(=O)OCC(=O)NCCCOc1cccc(CN2CCCCC2)c1 [ROXATIDINE ACETATE], the “Bacterial Biotransformation” value was “Compound NOT metabolized”.
For CCS(=O)(=O)CCn1c([N+](=O)[O-])cnc1C [TINIDAZOLE], the “Bacterial Biotransformation” value was “Compound NOT metabolized”.
